Assay results: patent US20030064380A1, “Anergy-regulated molecules” (The Center For Blood Research, Inc., priority 2001, published 2003)
Residues, ends and D or L forms follow the SMILES beside them. *: point of attachment. Cbz = O=C(OCc1ccccc1)*; CH2F = FC*

Tested on: primary Th1 cells
Assay: protease inhibitors assay: recovery of antigen responses of anergised primary Th1 cells (ELISA or RNase protection)
Type: cell-based, mice
Details: single inhibitor, two experiments
Experimental: Th1 cells were anergised by pretreatment with 1 μg/ml plate-bound antiCD3ε in the presence of 100 μM Z-VAD.fink (Clabiochem), 5 μM NLVS (Calbiochem) and/or 10 μM lactacystein (Calbiochem) for 16 hours. After that, cells were washed three times and left resting for 48-72 hours.
Whether anergy could be prevented by including caspase and proteasome inhibitors in the first step of pretreatment with ionomycin or anti-CD3 was tested to evaluate the functional importance of proteolytic pathways in anergy induction. […] The variability likely reflects the fact that the proteasome inhibitors are toxic, and needed to be washed away hours to days before the assay stimuli (antigen/APC or anti-CD3/anti-CD28) were applied. […] Similar results were obtained with the D5 T cell clone. Thus directed proteolysis of signaling proteins may be one of several mechanisms that cooperate to maintain lymphocyte anergy.

| SMILES | recovery of IL-2 production [%] |
| --- | --- |
| CC(C)CC(C=CS(C)(=O)=O)NC(=O)C(CC(C)C)NC(=O)C(CC(C)C)NC(=O)Cc1cc(I)c(O)c([N+](=O)[O-])c1 (centres unmarked) [NLVS] | 112 |
| COC(=O)C[C@H](NC(=O)[C@H](C)NC(=O)[C@@H](NC(=O)OCc1ccccc1)C(C)C)C(=O)CF [ZVAD] (Cbz-Val-Ala-Asp(OMe)-CH2F) | 90 |
